Data published in PMC3702540, “Sphingosine Kinase Activity Is Not Required for Tumor Cell Viability” (PLoS ONE, 2013).

Columns and labels:
mSPHK1 = mSPHK1 (Mus musculus, UniProt Q8CI15); experiment: Biochemical SPHK activity, 33P incorporation into S1P; design: species or system murine; details: biochemical assay
Description: (§1) A biochemical assay was used to measure the incorporation of ^33P-radiolabeled phosphate from ATP into S1P. Reactions were performed in 96-well polystyrene high-binding microplates (Greiner) in a volume of 60 µl. Reaction mixtures contained 50 mM HEPES (pH 7.5), 3 mM MgCl2, 10 mM NaF, 1 µM ATP, 0.75 µCi of [γ-33P]ATP, 1.11 µM sphingosine (Biomol International) in the presence of either 0.005% Triton X-100 (SPHK1) or 0.0025% NP-40 (SPHK2). Enzymatic reactions were initiated by adding 30 nM of sphingosine kinase in the presence of 2 mM dithiothreitol (DTT). Reactions were terminated after 50 min at 30°C by adding 30 µL 7.5 M Guanidine HCl. Plates were then washed three times with 200 µl PBS before 50 ul of scintillate was added to each well. The assay was quantified by counting in a Packard TopCount (Perkin Elmer).

[1] = system: human melanoma cell line WM266.4; experiment: Cellular SPHK activity, C17 S1P levels; details: WM 266-4, 2 h, read-out: IC50, inhibition of cellular SPHK activity (C17 S1P)
Description: (§9) Frozen cell pellets (1×10^6 cells) were thawed and 75 µl of methanol was added. The samples were transferred to an un-skirted 96 well PCR plate after which they were mixed to a homogeneous solution. The plate was then sealed and pulsed for 6 seconds per well (E200-S0%250 mV500 setting) on a Covaris Adaptive Focused Acoustic (AFA) cell disruptor (Covaris, Woburn, MA). 130 µl of Dichloromethane was then added to each well after which plates were incubated at room temperature for 2 hours. Post incubation, 52 µl of ddH2O was added to induce phase separation. […] 45 µl of this final sample was transferred to a 384 well plate and analyzed on a RapidfireTM (Biocius, Wakefield, MA) ultra-high throughput chromatography system interfaced with a TSQ Vantage triple stage quadrupole mass spectrometer (Thermo Scientific, Waltham, MA). […] After an aqueous wash ((80∶20) Methanol/ddH2O containing 75 mM NH4OH and 0.1% formic acid) to remove the S1P extraction components that interfere with mass spectrometry, C17-S1P was eluted ((99∶1) Methanol/ddH2O containing 0.1% formic acid) and analyzed by inline triple stage quadrupole mass spectrometry. […] C17-S1P was monitored using a selective reaction monitoring protocol which detected the loss of a phosphate molecule from the parent ion C17-S1P. […]
(§10) Two hours after addition of C17 sphingosine, cells were lysed and levels of C17 S1P were determined.

LN229 cells = experiment: 15 day colony formation assay; assay type: cell-based, human; details: concentrations up to 1 µM
Description: LN-229 cells were cultured in Dulbecco’s Modification of Eagle’s Medium (Corning® cellgro 10-013) supplement with 5%FBS and 1% P/S. On Day 1 cells were seeded on 6-well tissue culture plates at density of 800 cells per well. On Day 2 compounds were added and cells were incubated for 15 days at 37°C. Cells were then stained with Crystal violet.
The long term effect of SPHK inhibition on cell viability was studied in the glioblastoma cell line LN229. […] Concentrations of more than 3 µM led to immediate cell death due to cell lysis and prevented the formation of colonies (figure 5).
Figure 5 Effects of SPHK inhibition in colony formation assays. LN229 cells were seeded at a density of 800 cells/well in a six well plate in the presence of the indicated concentrations of SPHK inhibitor. After 15 days, cells were fixed and stained with crystal violet.

LOX = experiment: 72 h viability assay (CellTiter-Glo); assay type: cell-based, human; details: LOX (Skin), inflection point of titration curve
Description: (§2) Cell lines were obtained from ATCC and cultured in Dulbecco’s Modification of Eagle’s Medium (Corning® cellgro 10-013) supplemented with 5% FBS and 1% P/S or in Minimum Essential Medium (Corning® cellgro® 10-010) supplemented with 10% FBS, 0.1 mM MEM Nonessential Amino Acids (Corning® cellgro 25-025), 1.0 mM sodium pyruvate (Corning® cellgro 25-000) and 1% P/S. Cells were seeded at a density of 5000 cells per well in 96-well cell culture plates on day1. Media was changed with or without serum and dosed with compound on Day 2. On day5 the Cell Viability assay was performed with CellTiter-Glo® Reagent (Promega) according to the manufacturers instruction.
(§3) S1P has been reported to be important for tumor cell viability, and reduction of intracellular S1P levels has been associated with greater cellular sensitivity to pro-apoptotic stress, [7]. […] A panel of cell lines likely to be sensitive to SPHK inhibition was assembled based on literature reports, internal siRNA data and SPHK expression levels, [9], [21]. Viability was monitored after 72 h of SPHK inhibition under regular culture conditions to assess direct effects on cell viability, and under serum starvation to assess the effects of SPHK inhibition under stress conditions.
(§4) The IC50s reflect the inflection point of the titration curve.

human cell lines = experiment: Cellular SPHK activity, C17 S1P levels, summary for human cell lines; assay type: cell-based
Colo 320 = experiment: 72 h viability assay (CellTiter-Glo); assay type: cell-based; details: Homo sapiens, Colo 320 (Colon), inflection point of titration curve
Description: as §2
(§5) S1P has been reported to be important for tumor cell viability, and reduction of intracellular S1P levels has been associated with greater cellular sensitivity to pro-apoptotic stress, [7]. Compounds A and B were used to test this hypothesis experimentally. A panel of cell lines likely to be sensitive to SPHK inhibition was assembled based on literature reports, internal siRNA data and SPHK expression levels, [9], [21]. Viability was monitored after 72 h of SPHK inhibition under regular culture conditions to assess direct effects on cell viability, and under serum starvation to assess the effects of SPHK inhibition under stress conditions. […] Cell death was only observed at higher concentrations (3 to 30 µM). […] Like all substrate competitive SPHK inhibitors, these compounds have a polar headgroup and a lipophilic tail, and can act as detergents at higher concentrations. […]

HeLa = experiment: 72 h viability assay (CellTiter-Glo); assay type: cell-based; details: Homo sapiens, HeLa (Cervix), inflection point of titration curve
Description: as §2, §5

UACC257 = experiment: 72 h viability assay (CellTiter-Glo); assay type: cell-based; details: Homo sapiens, UACC-257, UACC257 (Skin), inflection point of titration curve
Description: as §2, §5

LN18 = experiment: 72 h viability assay (CellTiter-Glo); assay type: cell-based; details: Homo sapiens, LN-18, LN18 (Brain), inflection point of titration curve
Description: as §2, §5

LN229 = experiment: 72 h viability assay (CellTiter-Glo); assay type: cell-based; details: Homo sapiens, LN-229, LN229 (Brain), inflection point of titration curve
Description: as §2, §5

HA-1 = experiment: 72 h viability assay (CellTiter-Glo); assay type: cell-based; details: read-out: IC50 viability
Description: as §2, §5

WM266-4 = experiment: 72 h viability assay (CellTiter-Glo); assay type: cell-based; details: Homo sapiens, WM 266-4, WM266-4 (Skin), inflection point of titration curve
Description: as §2, §5

HS294T = experiment: 72 h viability assay (CellTiter-Glo); assay type: cell-based; details: Homo sapiens, Hs 294T, HS294T (Skin), inflection point of titration curve
Description: as §2, §5

A375 = experiment: 72 h viability assay (CellTiter-Glo); assay type: cell-based; details: Homo sapiens, A-375, A375 (Skin), inflection point of titration curve
Description: as §2, §5

Saos2 = experiment: 72 h viability assay (CellTiter-Glo); assay type: cell-based; details: Homo sapiens, SAOS-2, Saos2 (Bone), inflection point of titration curve
Description: as §2, §5

[2] = system: human breast cancer cell line MDA-MB-231; experiment: Cellular SPHK activity, C17 S1P levels; details: MDA-MB-231, 2 h, read-out: IC50, inhibition of cellular SPHK activity (C17 S1P)
Description: as §9, §10

plasma levels of S1P = experiment: Pharmacodynamic assay, plasma S1P levels in mice; assay type: in vivo
Description: (§6) For S1P measurements, plasma was extracted with 0.1% formic acid/methanol containing an internal standard (C17-S1P) and subjected to LC-MS/MS analysis. […] The method provided linear response over a concentration range of 1 to 2000 ng/ml. A separate aliquot of plasma was extracted with acetonitrile containing an internal standard (structural analog) and subjected to reversed-phase liquid chromatographic using a Shiseido UG Capcell C18, 50×2 mm analytical column (Phenomenex). MS/MS analysis was conducted on a API4000 with an electrospray interface using multiple reaction monitoring (MRM) in the positive ionization mode.
(§7) Female athymic nude mice were assigned to one of fifteen treatment groups. […] At various times after dosing (2 to 24 h), mice were sacrificed and plasma collected to determine S1P levels and compound concentrations. Data are mean ± SE (n = 5). […] S1P and drug concentration were determined by LC-MS/MS.
(§8) The inhibition of sphingosine kinase was evaluated in a pharmacodynamic assay. […] At 2, 7 and 24 hours post dose, plasma was collected and levels of S1P and plasma drug concentration were determined.

[3] = Compound plasma concentration in mice after oral gavage; assay type: in vivo
Description: as §6, §7, §8

[4] = system: MDA-MB-231 xenograft tumors; experiment: MDA-MB-231 tumor xenograft model; assay type: in vivo; details: athymic nude mice
Description: MDA-MB-231 cells were purchased from the American Type Culture Collection (ATCC) and maintained in DMEM high glucose with 10% fetal bovine serum (FBS) and 1x-L-glutamine. Mice were injected subcutaneously with 5×10^6 cells in 30% Matrigel (BD Biosciences, San Jose, CA). […] Vehicle and compound A were administered by oral gavage daily. Taxotere was administered by intraperitoneal injection once a week. Tumor dimensions were assessed twice weekly with a Pro-Max electronic digital caliper (Sylvac, Crissier, Switzerland) and tumor volume was calculated using the formula: length x width x height and expressed as mm^3. Data are expressed as mean +/− SE (n = 7–10). Repeated-measures analysis of variance (RMANOVA) followed by Dunnett’s post hoc test for multiple comparisons was used to evaluate statistical significance of observed differences. Body weight was recorded twice weekly as an index of toxicity.
Here, athymic nude mice were implanted s.c. with human MDA-MD-231 breast cancer cells. Dosing was initiated 18 days later when the tumors had reached ∼ 200 mm^3.
Female athymic nude mice were injected with 5×10^6 MDA-MB-231 cells on day 0. […] (n = 7–10 per group); bars, SE. *, P<0.0001, compared to vehicle.

[5] = system: murine melanoma cell line B16F10; experiment: Cellular SPHK activity, C17 S1P levels; details: Mus musculus, B16-F10, 2 h, read-out: IC50, inhibition of cellular SPHK activity (C17 S1P)
Description: as §9, §10

panel of cell lines = experiment: 72 h viability assays, summary for panel of cell lines; assay type: cell-based; details: regular culture conditions and serum starvation
Description: as §2, §3

mSPHK2 = mSPHK2 (Mus musculus, UniProt Q9JIA7); experiment: Biochemical SPHK activity, 33P incorporation into S1P; design: species or system murine; details: biochemical assay
Sequence of mSPHK2 (Q9JIA7 whole entry): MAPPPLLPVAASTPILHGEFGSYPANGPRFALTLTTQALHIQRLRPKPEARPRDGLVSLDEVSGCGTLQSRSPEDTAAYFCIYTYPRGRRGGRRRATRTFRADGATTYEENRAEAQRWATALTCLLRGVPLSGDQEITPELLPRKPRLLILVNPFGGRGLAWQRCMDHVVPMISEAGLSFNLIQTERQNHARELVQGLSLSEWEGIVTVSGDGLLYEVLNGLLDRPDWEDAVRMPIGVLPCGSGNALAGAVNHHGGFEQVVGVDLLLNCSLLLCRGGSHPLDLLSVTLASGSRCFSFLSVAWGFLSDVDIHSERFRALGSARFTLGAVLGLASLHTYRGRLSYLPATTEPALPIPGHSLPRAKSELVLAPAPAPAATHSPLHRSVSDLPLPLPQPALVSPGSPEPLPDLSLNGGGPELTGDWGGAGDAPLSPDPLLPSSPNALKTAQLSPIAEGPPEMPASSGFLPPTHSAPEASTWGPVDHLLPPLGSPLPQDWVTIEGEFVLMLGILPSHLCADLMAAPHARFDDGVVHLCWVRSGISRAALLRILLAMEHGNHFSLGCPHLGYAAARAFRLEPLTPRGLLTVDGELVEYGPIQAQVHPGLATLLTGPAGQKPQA
Description: as §1

hSPHK2 = hSPHK2 (Homo sapiens, UniProt Q9NRA0); experiment: as above; details: biochemical assay
Sequence of hSPHK2 (Q9NRA0 whole entry): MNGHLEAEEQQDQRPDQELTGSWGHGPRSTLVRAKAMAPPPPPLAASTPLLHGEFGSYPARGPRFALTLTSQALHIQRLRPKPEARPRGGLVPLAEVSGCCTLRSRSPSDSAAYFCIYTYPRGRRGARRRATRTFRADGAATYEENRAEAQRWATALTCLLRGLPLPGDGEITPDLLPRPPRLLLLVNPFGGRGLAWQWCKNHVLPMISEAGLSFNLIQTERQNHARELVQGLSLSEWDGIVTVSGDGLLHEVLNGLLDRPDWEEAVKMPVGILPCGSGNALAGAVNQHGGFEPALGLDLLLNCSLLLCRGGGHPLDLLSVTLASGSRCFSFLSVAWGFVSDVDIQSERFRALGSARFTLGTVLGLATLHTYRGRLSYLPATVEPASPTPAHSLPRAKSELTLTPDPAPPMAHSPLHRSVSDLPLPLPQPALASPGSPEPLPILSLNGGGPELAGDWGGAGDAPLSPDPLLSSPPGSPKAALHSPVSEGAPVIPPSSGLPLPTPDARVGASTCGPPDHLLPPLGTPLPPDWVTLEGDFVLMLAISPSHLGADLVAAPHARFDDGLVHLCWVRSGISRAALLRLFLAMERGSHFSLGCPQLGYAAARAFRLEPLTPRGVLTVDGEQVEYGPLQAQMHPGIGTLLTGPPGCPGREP
Description: as §1

hSPHK1 = hSPHK1 (Homo sapiens, UniProt Q9NYA1); experiment: as above; details: biochemical assay
Sequence of hSPHK1 (Q9NYA1 whole entry): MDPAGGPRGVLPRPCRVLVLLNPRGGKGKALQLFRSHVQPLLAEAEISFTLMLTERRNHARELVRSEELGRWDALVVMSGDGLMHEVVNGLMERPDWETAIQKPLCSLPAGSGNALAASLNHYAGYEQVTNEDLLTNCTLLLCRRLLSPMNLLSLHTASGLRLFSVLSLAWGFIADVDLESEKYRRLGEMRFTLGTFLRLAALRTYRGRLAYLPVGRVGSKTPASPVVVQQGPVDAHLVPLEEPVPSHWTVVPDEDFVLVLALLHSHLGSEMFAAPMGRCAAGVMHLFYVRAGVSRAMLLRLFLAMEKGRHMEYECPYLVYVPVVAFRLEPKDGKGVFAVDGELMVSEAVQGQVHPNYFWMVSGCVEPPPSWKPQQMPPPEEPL
Description: as §1

SPHK1 = system: SPHK1; design: method as in PMID 22397330; details: cited from earlier work
[6] = system: human melanoma cell line LOX; experiment: Endogenous S1P levels 24 h after compound treatment; assay type: cell-based; details: 24 h treatment, read-out: IC50, endogenous S1P production (LOX)
Text: Several SPHK inhibitors have been reported in the literature, and have been utilized to support the rheostat theory.
as §4

Sequence of mSPHK1 (Q8CI15 whole entry): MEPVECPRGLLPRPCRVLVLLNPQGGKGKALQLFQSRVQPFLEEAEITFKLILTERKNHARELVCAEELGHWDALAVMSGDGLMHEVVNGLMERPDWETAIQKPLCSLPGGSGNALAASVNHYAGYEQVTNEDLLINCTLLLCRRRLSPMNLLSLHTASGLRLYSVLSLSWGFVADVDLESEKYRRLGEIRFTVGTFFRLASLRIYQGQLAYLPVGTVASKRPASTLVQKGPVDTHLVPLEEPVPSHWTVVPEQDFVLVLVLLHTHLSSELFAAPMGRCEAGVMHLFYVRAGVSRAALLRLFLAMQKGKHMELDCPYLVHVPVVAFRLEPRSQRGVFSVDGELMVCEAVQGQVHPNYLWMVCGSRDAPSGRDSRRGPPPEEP

| SMILES | IC50 (mSPHK1) | IC50 [1] | viability in 72 h proliferation and 15 day colony formation assays (LN229 cells) | IC50 (LOX; Homo sapiens) | IC50s, inhibition of SPHK activity in human cell lines (human cell lines) | IC50 (Colo 320) | IC50 (HeLa) | IC50 (UACC257) | IC50 (LN18) | IC50 (LN229) | IC50 (HA-1) | IC50 (WM266-4) | IC50 (HS294T) | IC50 (A375) | IC50 (Saos2) | effect on viability at 1 µM compound (panel of cell lines) | IC50 (mSPHK2) | IC50 (hSPHK2) | also measured |
| --- | --- | --- | --- | --- | --- | --- | --- | --- | --- | --- | --- | --- | --- | --- | --- | --- | --- | --- | --- |
| OC[C@H]1C[C@@H](O)CCN1CCc1ccc(Nc2nc(-c3ccc(C(F)(F)F)cc3)cs2)cc1 [Compound A] | 0.064 µM | 0.063 µM | viability was unchanged | 4 µM | double digit nanomolar range | 5.1 µM | 6.4 µM | 4.4 µM | 4.1 µM | 4.8 µM | 6.3 µM | 6 µM | 6 µM | 8.3 µM | 7 µM | did not result in reduced viability | – | – | IC50 [2]: 0.09 µM; reduction of host / plasma S1P levels (plasma levels of S1P; 300 mg/kg oral): more than 70%; maximum inhibition of plasma levels of S1P (plasma levels of S1P; oral gavage 10-300 mg/kg, at plasma exposure of 0.38 µM): 72%; oral bioavailability [3]: orally bioavailable; plasma exposure at maximum inhibition of plasma S1P [3]: 0.38 µM; effect on tumor growth in vivo ([4]; 300 mg/kg daily by oral gavage from day 18): did not lead to significant inhibition of tumor growth; mice in which compound was not tolerated (deaths) ([4]; 300 mg/kg daily by oral gavage, cause of death unknown): 3 out of the 10; IC50 [5]: 0.25 µM |
| OC[C@H]1C[C@H](O)CN1CCCc1ccc(Nc2nc(-c3cccc(C(F)(F)F)c3)cs2)cc1 [Compound B] | 0.055 µM | 0.036 µM | viability was unchanged | 6.2 µM | double digit nanomolar range | 9.4 µM | 14.3 µM | 6.5 µM | 5.5 µM | 8.7 µM | 15.5 µM | 13.2 µM | 10.1 µM | 17.4 µM | 13.5 µM | did not result in reduced viability | > 5 µM | 0.06 µM | IC50 (hSPHK1): 0.008 µM |
| CCCCCc1ccc(/C=C/[C@H](O)[C@@H](CO)NC)cc1 [SK1-I] | – | – | – | – | – | – | – | – | – | – | – | – | – | – | – | – | – | – | biochemical IC50 (SPHK1): in the micromolar range |
| Oc1ccc(Nc2nc(-c3ccc(Cl)cc3)cs2)cc1 [SKII, reference compound] | > 10 µM | – | – | – | – | – | – | – | – | – | – | – | – | – | – | – | > 10 µM | 13 µM | IC50 (mSPHK1) (mSPHK1): too low to be detected; IC50 (LOX): 11.3 µM; IC50 [6]: 7.5 µM |
